In the kinase profiling compilation of Christmann-Franck et al. (2016):

Experiments:
Test in all cases: KINOMEscan competition binding
[1] = target: BMPR2 (human) (UniProt Q13873); conditions: compound 10.0 µM
[2] = target: CAMK2G (human) (UniProt Q13555); conditions: compound 10.0 µM
[3] = target: CDC42BPG (human) (UniProt Q6DT37); conditions: compound 10.0 µM
[4] = target: CLK2 (human) (UniProt P49760); conditions: compound 10.0 µM
[5] = target: CSNK1G2 (human) (UniProt P78368); conditions: compound 10.0 µM
[6] = target: CSNK1G3 (human) (UniProt Q9Y6M4); conditions: compound 10.0 µM
Sequence of CSNK1G3 (human) (Q9Y6M4 whole entry, looked up): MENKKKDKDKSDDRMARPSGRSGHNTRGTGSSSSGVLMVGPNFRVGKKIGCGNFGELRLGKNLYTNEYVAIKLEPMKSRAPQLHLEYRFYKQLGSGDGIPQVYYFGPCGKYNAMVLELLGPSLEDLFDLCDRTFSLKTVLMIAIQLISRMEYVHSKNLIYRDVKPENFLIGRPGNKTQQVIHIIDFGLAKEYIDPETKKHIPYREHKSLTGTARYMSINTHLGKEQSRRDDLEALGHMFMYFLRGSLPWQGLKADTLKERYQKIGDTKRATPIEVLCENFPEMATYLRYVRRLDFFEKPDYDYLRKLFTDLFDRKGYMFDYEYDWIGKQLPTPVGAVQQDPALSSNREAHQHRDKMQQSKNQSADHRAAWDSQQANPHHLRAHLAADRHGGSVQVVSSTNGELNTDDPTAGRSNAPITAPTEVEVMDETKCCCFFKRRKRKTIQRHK

[7] = target: DCLK2 (human) (UniProt Q8N568)
Sequence of DCLK2 (human) (Q8N568 whole entry, looked up): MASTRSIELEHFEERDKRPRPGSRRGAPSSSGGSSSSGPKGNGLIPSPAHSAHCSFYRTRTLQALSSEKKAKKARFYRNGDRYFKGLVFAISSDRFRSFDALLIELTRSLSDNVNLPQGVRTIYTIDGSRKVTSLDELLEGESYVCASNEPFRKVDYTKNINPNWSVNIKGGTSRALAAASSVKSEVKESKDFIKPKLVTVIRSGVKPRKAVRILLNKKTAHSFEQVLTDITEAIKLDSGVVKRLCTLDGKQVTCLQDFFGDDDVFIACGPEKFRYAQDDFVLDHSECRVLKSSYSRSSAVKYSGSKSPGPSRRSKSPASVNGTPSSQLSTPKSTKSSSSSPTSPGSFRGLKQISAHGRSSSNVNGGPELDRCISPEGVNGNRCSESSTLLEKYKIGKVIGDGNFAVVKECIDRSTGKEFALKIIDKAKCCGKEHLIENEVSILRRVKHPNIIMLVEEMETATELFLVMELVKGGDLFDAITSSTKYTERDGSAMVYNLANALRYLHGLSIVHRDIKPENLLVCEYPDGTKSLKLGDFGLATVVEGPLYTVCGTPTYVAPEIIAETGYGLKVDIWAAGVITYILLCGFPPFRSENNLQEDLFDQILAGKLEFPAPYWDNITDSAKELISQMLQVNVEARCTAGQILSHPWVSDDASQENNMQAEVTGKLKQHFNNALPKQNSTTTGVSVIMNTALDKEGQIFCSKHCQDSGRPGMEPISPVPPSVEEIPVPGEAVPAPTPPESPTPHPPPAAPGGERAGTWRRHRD

[8] = test system: EGFR (human), P00533 [T790M/L858R]; conditions: compound 10.0 µM
[9] = target: EPHA3 (human) (UniProt P29320); conditions: compound 10.0 µM
[10] = target: ERBB3 (human) (UniProt P21860); conditions: compound 10.0 µM
[11] = target: FGFR4 (human) (UniProt P22455); conditions: compound 10.0 µM
[12] = test system: FLT3 (human), P36888 [N841I]; conditions: compound 10.0 µM
[13] = target: FLT4 (human) (UniProt P35916); conditions: compound 10.0 µM
[14] = target: FRK (human) (UniProt P42685); conditions: compound 10.0 µM
[15] = target: GSK3A (human) (UniProt P49840); conditions: compound 10.0 µM
[16] = target: ICK (human) (UniProt Q9UPZ9); conditions: compound 10.0 µM
[17] = target: INSRR (human) (UniProt P14616); conditions: compound 10.0 µM
[18] = target: JAK3 JH1 catalytic (human) (UniProt P52333); conditions: compound 10.0 µM
[19] = target: LRRK2 (human) (UniProt Q5S007)
Sequence of LRRK2 (human) (Q5S007 whole entry, looked up): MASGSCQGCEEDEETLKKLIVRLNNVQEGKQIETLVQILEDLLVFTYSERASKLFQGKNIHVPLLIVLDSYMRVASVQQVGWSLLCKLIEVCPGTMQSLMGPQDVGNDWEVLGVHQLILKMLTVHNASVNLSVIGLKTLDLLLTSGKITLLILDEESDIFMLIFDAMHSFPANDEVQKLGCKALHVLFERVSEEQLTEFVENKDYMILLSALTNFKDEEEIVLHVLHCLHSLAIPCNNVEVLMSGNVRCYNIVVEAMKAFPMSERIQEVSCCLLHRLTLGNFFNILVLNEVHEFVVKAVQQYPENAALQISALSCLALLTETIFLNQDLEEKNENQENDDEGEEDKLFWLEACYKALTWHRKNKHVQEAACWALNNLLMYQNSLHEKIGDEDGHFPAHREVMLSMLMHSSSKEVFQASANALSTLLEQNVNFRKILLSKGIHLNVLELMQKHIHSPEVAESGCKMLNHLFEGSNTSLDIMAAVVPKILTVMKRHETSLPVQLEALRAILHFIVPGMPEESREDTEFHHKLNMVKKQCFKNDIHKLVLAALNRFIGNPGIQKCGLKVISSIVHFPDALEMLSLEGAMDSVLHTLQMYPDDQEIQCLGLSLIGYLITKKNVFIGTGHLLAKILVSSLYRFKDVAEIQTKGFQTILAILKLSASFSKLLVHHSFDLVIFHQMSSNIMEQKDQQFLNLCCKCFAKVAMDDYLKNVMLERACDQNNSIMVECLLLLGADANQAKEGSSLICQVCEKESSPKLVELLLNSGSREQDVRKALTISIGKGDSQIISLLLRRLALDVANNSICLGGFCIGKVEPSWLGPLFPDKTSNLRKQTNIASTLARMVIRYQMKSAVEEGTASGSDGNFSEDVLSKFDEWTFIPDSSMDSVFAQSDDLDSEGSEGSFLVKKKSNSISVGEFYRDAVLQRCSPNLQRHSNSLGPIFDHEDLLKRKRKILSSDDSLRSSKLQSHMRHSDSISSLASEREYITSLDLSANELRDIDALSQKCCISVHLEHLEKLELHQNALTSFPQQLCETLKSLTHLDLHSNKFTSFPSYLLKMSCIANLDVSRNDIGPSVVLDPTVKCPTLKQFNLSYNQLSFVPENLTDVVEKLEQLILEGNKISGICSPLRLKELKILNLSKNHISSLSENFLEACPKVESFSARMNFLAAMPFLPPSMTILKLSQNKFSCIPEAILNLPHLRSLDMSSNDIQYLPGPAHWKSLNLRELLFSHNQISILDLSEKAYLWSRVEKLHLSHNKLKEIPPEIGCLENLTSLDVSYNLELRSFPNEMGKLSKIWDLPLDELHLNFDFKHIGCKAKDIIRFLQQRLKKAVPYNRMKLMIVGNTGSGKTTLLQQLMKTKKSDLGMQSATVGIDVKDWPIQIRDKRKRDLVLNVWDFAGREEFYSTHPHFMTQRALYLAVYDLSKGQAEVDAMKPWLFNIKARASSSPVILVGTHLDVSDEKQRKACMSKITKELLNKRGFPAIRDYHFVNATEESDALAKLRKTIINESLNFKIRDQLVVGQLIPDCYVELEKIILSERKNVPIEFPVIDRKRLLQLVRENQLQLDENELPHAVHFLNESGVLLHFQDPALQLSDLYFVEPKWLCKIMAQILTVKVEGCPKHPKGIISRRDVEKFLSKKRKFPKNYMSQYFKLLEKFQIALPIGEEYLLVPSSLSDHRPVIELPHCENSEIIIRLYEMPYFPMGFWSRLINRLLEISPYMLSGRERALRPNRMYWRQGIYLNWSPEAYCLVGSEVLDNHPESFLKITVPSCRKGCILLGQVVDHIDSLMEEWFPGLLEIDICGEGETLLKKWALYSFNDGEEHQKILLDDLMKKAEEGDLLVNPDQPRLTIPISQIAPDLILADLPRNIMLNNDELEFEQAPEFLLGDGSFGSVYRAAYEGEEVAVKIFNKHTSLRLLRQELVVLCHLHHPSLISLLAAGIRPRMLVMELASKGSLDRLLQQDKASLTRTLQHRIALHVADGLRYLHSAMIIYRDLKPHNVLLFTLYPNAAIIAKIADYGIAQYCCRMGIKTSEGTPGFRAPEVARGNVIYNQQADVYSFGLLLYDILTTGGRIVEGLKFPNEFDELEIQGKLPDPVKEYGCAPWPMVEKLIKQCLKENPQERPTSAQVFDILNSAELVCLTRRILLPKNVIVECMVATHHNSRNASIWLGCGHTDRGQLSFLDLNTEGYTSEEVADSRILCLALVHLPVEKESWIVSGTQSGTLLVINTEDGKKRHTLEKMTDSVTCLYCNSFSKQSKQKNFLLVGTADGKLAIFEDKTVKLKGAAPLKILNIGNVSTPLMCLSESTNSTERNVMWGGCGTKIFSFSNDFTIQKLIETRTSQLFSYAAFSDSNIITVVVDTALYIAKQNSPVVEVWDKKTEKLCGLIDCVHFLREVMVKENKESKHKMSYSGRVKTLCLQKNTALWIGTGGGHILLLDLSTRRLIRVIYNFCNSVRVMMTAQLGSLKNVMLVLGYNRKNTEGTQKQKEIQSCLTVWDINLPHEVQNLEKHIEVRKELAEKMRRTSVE

[20] = target: MAP3K12 (human) (UniProt Q12852); conditions: compound 10.0 µM
[21] = target: MAP3K4 (human) (UniProt Q9Y6R4); conditions: compound 10.0 µM
[22] = target: MAP3K5 (human) (UniProt Q99683); conditions: compound 10.0 µM
[23] = target: MAP3K7 (human) (UniProt O43318); conditions: compound 10.0 µM
Sequence of MAP3K7 (human) (O43318 whole entry, looked up): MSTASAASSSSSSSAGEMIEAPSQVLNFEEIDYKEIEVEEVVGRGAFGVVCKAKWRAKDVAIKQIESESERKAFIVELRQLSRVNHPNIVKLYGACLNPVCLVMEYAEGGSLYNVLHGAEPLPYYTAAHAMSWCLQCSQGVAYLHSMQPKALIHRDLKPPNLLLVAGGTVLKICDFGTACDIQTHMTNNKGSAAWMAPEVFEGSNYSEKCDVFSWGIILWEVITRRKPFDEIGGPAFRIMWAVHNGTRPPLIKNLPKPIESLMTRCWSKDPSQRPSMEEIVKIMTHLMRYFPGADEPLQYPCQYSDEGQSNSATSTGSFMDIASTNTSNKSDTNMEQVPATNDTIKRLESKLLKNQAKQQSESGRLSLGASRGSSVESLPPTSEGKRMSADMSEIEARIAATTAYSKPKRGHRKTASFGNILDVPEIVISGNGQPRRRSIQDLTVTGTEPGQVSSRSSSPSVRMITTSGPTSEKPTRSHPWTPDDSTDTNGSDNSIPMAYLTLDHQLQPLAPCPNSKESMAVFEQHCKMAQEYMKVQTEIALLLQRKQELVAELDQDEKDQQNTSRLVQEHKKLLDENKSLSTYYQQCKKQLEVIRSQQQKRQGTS

[24] = target: MAPK10 (human) (UniProt P53779); conditions: compound 10.0 µM
[25] = target: MINK1 (human) (UniProt Q8N4C8); conditions: compound 10.0 µM
[26] = target: MYO3B (human) (UniProt Q8WXR4); conditions: compound 10.0 µM
[27] = target: NEK1 (human) (UniProt Q96PY6); conditions: compound 10.0 µM
[28] = target: NEK9 (human) (UniProt Q8TD19); conditions: compound 10.0 µM
[29] = target: PAK2 (human) (UniProt Q13177); conditions: compound 10.0 µM
[30] = target: PIK3C2B (human) (UniProt O00750); conditions: compound 10.0 µM
[31] = target: PIK3CD (human) (UniProt O00329); conditions: compound 10.0 µM
[32] = target: PKN3 (M.tuberculosis) (UniProt Q6P5Z2); conditions: compound 10.0 µM
[33] = target: PRKAA1 (human) (UniProt Q13131); conditions: compound 10.0 µM
[34] = test system: RET (human), P07949 [V804M]; conditions: compound 10.0 µM
[35] = target: RIOK2 (human) (UniProt Q9BVS4); conditions: compound 10.0 µM
[36] = target: RIPK2 (human) (UniProt O43353); conditions: compound 10.0 µM
[37] = target: RPS6KA6 KD2 (human) (UniProt Q9UK32)
Sequence of RPS6KA6 KD2 (human) (Q9UK32 whole entry, looked up): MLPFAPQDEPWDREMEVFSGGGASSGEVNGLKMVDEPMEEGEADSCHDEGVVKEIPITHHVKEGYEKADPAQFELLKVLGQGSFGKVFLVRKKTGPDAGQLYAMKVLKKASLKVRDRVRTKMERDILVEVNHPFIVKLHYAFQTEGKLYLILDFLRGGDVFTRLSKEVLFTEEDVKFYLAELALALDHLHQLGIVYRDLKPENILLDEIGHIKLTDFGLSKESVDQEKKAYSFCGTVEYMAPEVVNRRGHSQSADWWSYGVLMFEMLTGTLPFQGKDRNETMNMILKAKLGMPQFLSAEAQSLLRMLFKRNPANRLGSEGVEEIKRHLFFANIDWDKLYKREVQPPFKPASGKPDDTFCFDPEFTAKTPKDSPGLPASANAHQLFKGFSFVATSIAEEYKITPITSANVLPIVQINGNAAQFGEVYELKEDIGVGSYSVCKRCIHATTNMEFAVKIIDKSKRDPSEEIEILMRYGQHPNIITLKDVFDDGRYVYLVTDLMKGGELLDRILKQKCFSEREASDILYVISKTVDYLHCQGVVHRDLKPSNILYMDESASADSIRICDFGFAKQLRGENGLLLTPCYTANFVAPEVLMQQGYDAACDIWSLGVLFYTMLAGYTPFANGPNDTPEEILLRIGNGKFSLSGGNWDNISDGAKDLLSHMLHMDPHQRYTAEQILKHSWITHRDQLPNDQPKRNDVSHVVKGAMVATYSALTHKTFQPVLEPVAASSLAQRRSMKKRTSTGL

[38] = target: STK24 (human) (UniProt Q9Y6E0); conditions: compound 10.0 µM
[39] = target: STK4 (human) (UniProt Q13043); conditions: compound 10.0 µM
[40] = target: TGFBR1 (human) (UniProt P36897); conditions: compound 10.0 µM

COc1cc(C(=O)N2CCC(N3CCN(C)CC3)CC2)ccc1Nc1ncc2c(n1)N(C)c1ccccc1C(=O)N2C
kinase still bound, per cent of control [1]: 100%
kinase still bound, per cent of control [2]: 47%
kinase still bound, per cent of control [3]: 100%
kinase still bound, per cent of control [4]: 72%
kinase still bound, per cent of control [5]: 100%
kinase still bound, per cent of control [6]: 93%
Kd [7]: 16 nM
kinase still bound, per cent of control ([7]; compound 10.0 µM): 0.45%
kinase still bound, per cent of control [8]: 84%
kinase still bound, per cent of control [9]: 100%
kinase still bound, per cent of control [10]: 100%
kinase still bound, per cent of control [11]: 28%
kinase still bound, per cent of control [12]: 73%
kinase still bound, per cent of control [13]: 100%
kinase still bound, per cent of control [14]: 34%
kinase still bound, per cent of control [15]: 100%
kinase still bound, per cent of control [16]: 90%
kinase still bound, per cent of control [17]: 97%
kinase still bound, per cent of control [18]: 100%
Kd [19]: 20 nM
kinase still bound, per cent of control ([19]; compound 10.0 µM): 0%
residual activity [20]: 81%
kinase still bound, per cent of control [21]: 100%
kinase still bound, per cent of control [22]: 100%
kinase still bound, per cent of control [23]: 98%
kinase still bound, per cent of control [24]: 77%
kinase still bound, per cent of control [25]: 77%
kinase still bound, per cent of control [26]: 83%
kinase still bound, per cent of control [27]: 83%
kinase still bound, per cent of control [28]: 100%
kinase still bound, per cent of control [29]: 65%
kinase still bound, per cent of control [30]: 100%
kinase still bound, per cent of control [31]: 62%
kinase still bound, per cent of control [32]: 100%
kinase still bound, per cent of control [33]: 51%
kinase still bound, per cent of control [34]: 80%
kinase still bound, per cent of control [35]: 100%
kinase still bound, per cent of control [36]: 100%
Kd [37]: 620 nM
kinase still bound, per cent of control ([37]; compound 10.0 µM): 2.2%
kinase still bound, per cent of control [38]: 87%
kinase still bound, per cent of control [39]: 100%
kinase still bound, per cent of control [40]: 100%
